Measurements: patent US9315503B2, “Kinase inhibitors” (CHIESI FARMACEUTICI S.p.A., priority 2011, dated 2016)
Structures can show the parent of a compound that is named as a salt.

Tests used:
p38alpha = molecular target: T1, p38alpha (Homo sapiens, UniProt Q16539); test: P38Alpha enzyme inhibition assay (Alphascreen kinase activity assay); type: biochemical; conditions: 100 pM p38alpha, 250 μM ATP, 2 hours pre-incubation at 25° C., read-out: p38α inhibition (IC50 values)
T1 construct: purchased Invitrogen PV3304
Outline: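 AlphaScreen read-out: after an EDTA stop, an anti-phospho-ATF2 antibody with Protein A acceptor and donor beads measured substrate phosphorylation. Compounds sat 2 h at 25°C with 100 pM p38α and 0.3 µg/ml ATF-2 fusion protein (pH 7.5, 1% DMSO) before 250 µM ATP was added for 1 h. IC50 from dose-response.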

[1] = system: LPS-stimulated TNFα release from PBMCs; test: LPS-stimulated PBMC TNFα release assay; type: cell-based; conditions: inhibition of TNFα release, human PBMCs, LPS 10 ng/ml, 18 h, ELISA, read-out: p38α inhibition (IC50 values)
Outline: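 TNFα in supernatants measured by ELISA after 18 h LPS (10 ng/ml) challenge of human PBMCs given 1 h compound pretreatment at 37 °C in medium with 1% FBS. Percent inhibition versus control release fitted to dose-response curves for IC50; at least three independent runs.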

T1 sequence (Q16539 whole entry): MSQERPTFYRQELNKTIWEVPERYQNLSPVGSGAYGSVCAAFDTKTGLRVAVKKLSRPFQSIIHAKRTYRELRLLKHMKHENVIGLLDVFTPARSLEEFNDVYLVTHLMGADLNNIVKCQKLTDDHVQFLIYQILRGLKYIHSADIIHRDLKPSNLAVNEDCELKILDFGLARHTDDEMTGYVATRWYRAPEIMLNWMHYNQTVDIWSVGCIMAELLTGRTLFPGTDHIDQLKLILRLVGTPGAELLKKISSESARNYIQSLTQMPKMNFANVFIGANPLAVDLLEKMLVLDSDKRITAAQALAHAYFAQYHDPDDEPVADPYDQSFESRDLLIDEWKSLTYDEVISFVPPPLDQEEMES

Structure (SMILES)	IC50 (p38alpha) [µM]	IC50 [1] [µM]
Cc1ccc(-n2nc(C(C)(C)C)cc2NC(=O)N[C@H]2CC[C@@H](Oc3ccc(CN4CCOCC4)nc3)c3ccccc32)cc1 [Example 21, 1-(5-tert-Butyl-2-p-tolyl-2H-pyrazol-3-yl)-3-[(1S,4R)-4-(6-morpholin-4-ylmethyl-pyridin-3-yloxy)-1,2,3,4-tetrahydro-naphthalen-1-yl]-urea]	0.01 to 0.1	0.01 to 0.1
CC(C)(C)c1cc(NC(=O)N[C@H]2CC[C@@H](Oc3ccc4nnc(N5CCCCC5)n4c3)c3ccccc32)n(-c2cccc(CN3CCCCC3)c2)n1 [Example 44, 1-[5-tert-Butyl-2-(3-piperidin-1-ylmethyl-phenyl)-2H-pyrazol-3-yl]-3-[(1S,4R)-4-(3-piperidin-1-yl-[1,2,4]triazolo[4,3-a]pyridin-6-yloxy)-1,2,3,4-tetrahydro-naphthalen-1-yl]-urea]	< 0.01	< 0.01
COCC(=O)Nc1cc(O[C@@H]2CC[C@H](NC(=O)Nc3cc(C(C)(C)C)nn3-c3ccc(C)cc3)c3ccccc32)ccn1 [Example 13, N-(4-{(1R,4S)-4-[3-(5-tert-Butyl-2-p-tolyl-2H-pyrazol-3-yl)-ureido]-1,2,3,4-tetrahydro-naphthalen-1-yloxy}-pyridin-2-yl)-2-methoxy-acetamide]	< 0.01	< 0.01
Cc1ccc(-n2nc(C(C)(C)C)cc2NC(=O)N[C@H]2CC[C@@H](Oc3ccc4nnc(-c5ccc(CN6CCOCC6)cc5)n4c3)c3ccccc32)cc1 [Example 18, 1-(5-tert-Butyl-2-p-tolyl-2H-pyrazol-3-yl)-3-{(1S,4R)-4-[3-(4-morpholin-4-ylmethyl-phenyl)-[1,2,4]triazolo[4,3-a]pyridin-6-yloxy]-1,2,3,4-tetrahydro-naphthalen-1-yl]-urea]	< 0.01	< 0.01
CC(C)(C)c1cc(NC(=O)N[C@H]2CC[C@@H](Oc3ccc4nnc(N5CCC(O)CC5)n4c3)c3ccccc32)n(-c2ccc(CO)cc2)n1 [Example 57, 1-[5-tert-Butyl-2-(4-hydroxymethyl-phenyl)-2H-pyrazol-3-yl]-3-{(1S,4R)-4-[3-(4-hydroxy-piperidin-1-yl)-[1,2,4]triazolo[4,3-a]pyridin-6-yloxy]-1,2,3,4-tetrahydro-naphthalen-1-yl}-urea]	< 0.01	0.01 to 0.1
Cc1ccc(-n2nc(C(C)(C)C)cc2NC(=O)N[C@H]2CC[C@@H](Oc3ccc4nnc([C@H]5CCCN(C)C5)n4c3)c3ccccc32)cc1 [Example 88, 1-(5-tert-Butyl-2-p-tolyl-2H-pyrazol-3-yl)-3-{(1S,4R)-4-[3-((S)-1-methyl-piperidin-3-yl)-[1,2,4]triazolo[4,3-a]pyridin-6-yloxy]-1,2,3,4-tetrahydro-naphthalen-1-yl}-urea]	< 0.01	< 0.01
Cc1ccc(-n2nc(C(C)(C)C)cc2NC(=O)N[C@H]2CC[C@@H](Oc3ccc4nnc(N5CCCN(C)CC5)n4c3)c3ccccc32)cc1 [Example 69, 1-(5-tert-Butyl-2-p-tolyl-2H-pyrazol-3-yl)-3-{(1S,4R)-4-[3-(4-methyl-[1,4]diazepan-1-yl)-[1,2,4]triazolo[4,3-a]pyridin-6-yloxy]-1,2,3,4-tetrahydro-naphthalen-1-yl}urea]	< 0.01	< 0.01
CCN1CCC[C@H]1c1nnc2ccc(O[C@@H]3CC[C@H](NC(=O)Nc4cc(C(C)(C)C)nn4-c4ccc(C)cc4)c4ccccc43)cn12 [Example 61, 1-(5-tert-Butyl-2-p-tolyl-2H-pyrazol-3-yl)-3-{(1S,4R)-4-[3-((S)-1-ethyl-pyrrolidin-2-yl)-[1,2,4]triazolo[4,3-a]pyridin-6-yloxy]-1,2,3,4-tetrahydro-naphthalen-1-yl}-urea]	< 0.01	< 0.01
CCOC(=O)c1cccc(-n2nc(C(C)(C)C)cc2NC(=O)N[C@H]2CC[C@@H](Oc3ccc4nnc([C@@H]5CCCN5C)n4c3)c3ccccc32)c1 [Example 30, 3-[3-tert-Butyl-5-(3-{(1S,4R)-4-[3-((S)-1-methyl-pyrrolidin-2-yl)-[1,2,4]triazolo[4,3-a]pyridin-6-yloxy]-1,2,3,4-tetrahydro-naphthalen-1-yl}-ureido)-pyrazol-1-yl]-benzoic acid ethyl ester]	< 0.01	< 0.01
Cc1ccc(-n2nc(C(C)(C)C)cc2NC(=O)N[C@H]2CC[C@@H](Oc3ccc4nnc(N(C)CCN(C)C)n4c3)c3ccccc32)cc1 [Example 43, 1-(5-tert-Butyl-2-p-tolyl-2H-pyrazol-3-yl)-3-((1S,4R)-4-{3-[(2-dimethylamino-ethyl)-methyl-amino]-[1,2,4]triazolo[4,3-a]pyridin-6-yloxy}-1,2,3,4-tetrahydro-naphthalen-1-yl)-urea]	< 0.01	< 0.01
Cc1ccc(-n2nc(C(C)(C)C)cc2NC(=O)N[C@H]2CC[C@@H](Oc3ccc4nnc([C@H]5COCCN5C)n4c3)c3ccccc32)cc1 [Example 83, 1-(5-tert-Butyl-2-p-tolyl-2H-pyrazol-3-yl)-3-{(1S,4R)-4-[3-((S)-4-methyl-morpholin-3-yl)-[1,2,4]triazolo[4,3-a]pyridin-6-yloxy]-1,2,3,4-tetrahydro-naphthalen-1-yl}-urea, partial formate salt]	< 0.01	< 0.01
Cc1ccc(-n2nc(C(C)(C)C)cc2NC(=O)N[C@H]2CC[C@@H](Oc3ccc4nnc(N5CC[C@@H](O)C5)n4c3)c3ccccc32)cc1 [Example 38, 1-(5-tert-Butyl-2-p-tolyl-2H-pyrazol-3-yl)-3-{(1S,4R)-4-[3-((R)-3-hydroxy-pyrrolidin-1-yl)-[1,2,4]triazolo[4,3-a]pyridin-6-yloxy]-1,2,3,4-tetrahydro-naphthalen-1-yl}-urea]	< 0.01	< 0.01
Cc1ccc(-n2nc(C(C)(C)C)cc2NC(=O)N[C@H]2CC[C@@H](Oc3ccc4nnc(N5CCC(C)(O)CC5)n4c3)c3ccccc32)cc1 [Example 79, 1-(5-tert-Butyl-2-p-tolyl-2H-pyrazol-3-yl)-3-{(1S,4R)-4-[3-(4-hydroxy-4-methyl-piperidin-1-yl)-[1,2,4]triazolo[4,3-a]pyridin-6-yloxy]-1,2,3,4-tetrahydro-naphthalen-1-yl}-urea]	< 0.01	< 0.01
C[C@@H]1CCC[C@H](C)N1c1nnc2ccc(O[C@@H]3CC[C@H](NC(=O)Nc4cc(C(C)(C)C)nn4-c4cnn(CCN(C)C)c4)c4ccccc43)cn12 [Example 125, 1-[3-tert-Butyl-1′-(2-dimethylamino-ethyl)-1′H-[1,4′]bipyrazolyl-5-yl]-3-{(1S,4R)-4-[3-((2S,6R)-2,6-dimethyl-piperidin-1-yl)-[1,2,4]triazolo[4,3-a]pyridin-6-yloxy]-1,2,3,4-tetrahydro-naphthalen-1-yl}-urea]	< 0.01	< 0.01

The next lines start with results.

IC50 (p38alpha) [µM]	Structure (SMILES)	IC50 [1] [µM]
< 0.01	CC(C)(C)c1cc(NC(=O)N[C@H]2CC[C@@H](Oc3ccc4nnc(N5CCCCC5)n4c3)c3ccccc32)n(-c2ccc(CO)cc2)n1 [Example 34, 1-[5-tert-Butyl-2-(4-hydroxymethyl-phenyl)-2H-pyrazol-3-yl]-3-[(1S,4R)-4-(3-piperidin-1-yl-[1,2,4]triazolo[4,3-a]pyridin-6-yloxy)-1,2,3,4-tetrahydro-naphthalen-1-yl]-urea]	< 0.01
< 0.01	C[C@H]1CCCCN1c1nnc2ccc(O[C@@H]3CC[C@H](NC(=O)Nc4cc(C(C)(C)C)on4)c4ccccc43)cn12 [Example 111, 1-(5-tert-Butyl-isoxazol-3-yl)-3-{(1S,4R)-4-[3-((S)-2-methyl-piperidin-1-yl)-[1,2,4]triazolo[4,3-a]pyridin-6-yloxy]-1,2,3,4-tetrahydro-naphthalen-1-yl}-urea]	< 0.01
< 0.01	Cc1ccc(-n2nc(C(C)(C)C)cc2NC(=O)N[C@H]2CC[C@@H](Oc3ccc4nnc(CCN5CCN(C)CC5)n4c3)c3ccccc32)cc1 [Example 2, 1-(5-tert-Butyl-2-p-tolyl-2H-pyrazol-3-yl)-3-((1S,4R)-4-{3-[2-(4-methyl-piperazin-1-yl)-ethyl]-[1,2,4]triazolo[4,3-a]pyridin-6-yloxy}-1,2,3,4-tetrahydro-naphthalen-1-yl)-urea formate salt]	0.01 to 0.1
< 0.01	CN1CCCC[C@H]1c1nnc2ccc(O[C@@H]3CC[C@H](NC(=O)Nc4cc(C(C)(C)C)nn4-c4ccc(CO)cc4)c4ccccc43)cn12 [Example 65, 1-[5-tert-Butyl-2-(4-hydroxymethyl-phenyl)-2H-pyrazol-3-yl]-3-{(1S,4R)-4-[3-((S)-1-methyl-piperidin-2-yl)-[1,2,4]triazolo[4,3-a]pyridin-6-yloxy]-1,2,3,4-tetrahydro-naphthalen-1-yl}-urea, partial formate salt]	< 0.01
< 0.01	Cc1ccc(-n2nc(C(C)(C)C)cc2NC(=O)N[C@H]2CC[C@@H](Oc3ccc4nnc([C@]5(C)CCCN5C)n4c3)c3ccccc32)cc1 [Example 47, 1-(5-tert-Butyl-2-p-tolyl-2H-pyrazol-3-yl)-3-{(1S,4R)-4-[3-((S)-1,2-dimethyl-pyrrolidin-2-yl)-[1,2,4]triazolo[4,3-a]pyridin-6-yloxy]-1,2,3,4-tetrahydro-naphthalen-1-yl}-urea]	< 0.01
< 0.01	CC(C)(C)c1cc(NC(=O)N[C@H]2CC[C@@H](Oc3ccc4nnc(N5CCCCC5)n4c3)c3ccccc32)n(-c2ccc(C#N)cc2)n1 [Example 71, 1-[5-tert-Butyl-2-(4-cyano-phenyl)-2H-pyrazol-3-yl]-3-[(1S,4R)-4-(3-piperidin-1-yl-[1,2,4]triazolo[4,3-a]pyridin-6-yloxy)-1,2,3,4-tetrahydro-naphthalen-1-yl]-urea]	< 0.01
